Source: patent US9241972B2, “Use of Wnt agents to prevent hypoxic injury” (THE BOARD OF TRUSTEES OF THE LELAND STANFORD JUNIOR …, priority 2011, dated 2016)
“Also recorded” adds a separate entry of the source. Values belong to the compound of their own block, whether it stands above or below them.

What was measured:
HIF-1 = HIF-1 / HRE luciferase reporter assay (and HIF-1α immunoblot) in AML12 hepatocytes; format: cell-based, mouse
Procedure: (§1) The differentiated non-transformed mouse hepatocyte cell line AML12 (ATCC Inc.) was cultured in Dulbecco's […] (DMEM)/F-12 media (1:1) supplemented with 10% fetal bovine serum (FBS), 1% penicillin-streptomycin antibiotics and 5 μg/ml insulin, 5 μg/ml transferrin, 5 ng/ml selenium as previously described (62). The human hepatocellular carcinoma cell lines Huh7 and HepG2 were grown in DMEM media containing 10% FBS and 1% penicillin-streptomycin antibiotics. Media was purchased from Hyclone (Logan, Utah). All other medium components were purchased from Invitrogen (Carlsbad, Calif.). Cultures were maintained at 37° C. in a hunified 5% CO2 atmosphere. For hypoxic conditions, cells were grown at 1% O2 in a custom-designed incubator (XVivo Hypoxia Chamber; BioSpherix) for 24 hrs.
Western Blot Analysis and Immunoprecipitation. […]
For the reporter assay, cells were seeded in a 24-well plate under triplicate conditions at 80% confluency. […] After 2 days, luciferase and galactosidase expression were measured using the Dual-Light Reporter Gene Assay (Applied Biosystems, Foster City, Calif.) according to the manufacturer's instructions. […]

β-catenin/TCF signaling = assay: β-catenin/TCF luciferase reporter assay in AML12 hepatocytes; format: cell-based
Procedure: as §1
Western Blot Analysis and Immunoprecipitation. Cells were treated with actinomycin D and TNFα, hydrogen peroxide (H2O2), hypoxia 1% for 24 hours or pre-treated with N-acetylcysteine (NAC), cobalt chloride (CoCl2), YC-1 (Alexis Biochemicals, San Diego, Calif.), Resveratrol or nicotinamide (NAM) as described in the figure legends. All other chemicals were purchased from Sigma Aldrich (Sigma Aldrich, St. Louis, Mo.). Total proteins (30 μg) were lysed with RIPA lysis buffer and separated by sodium dodecylsulfate-polyacrylamide gel electrophoresis. After transfer, the polyvinylidene diflouride membrane was blocked with 5% non-fat milk in Tris-buffered saline with 0.1% Tween-20 (TBST) and then incubated with primary antibodies at 4° C. overnight. After washing, the horseradish peroxidase-conjugated secondary antibodies were added for 30 minutes at room temperature. Antibody binding was visualized by enhanced chemiluminescence reagent (GE Healthcare BioSciences, Buckinghamshire, United Kingdom).
For the reporter assay, cells were seeded in a 24-well plate under triplicate conditions at 80% confluency. Cells were transfected the next day with plasmid pMegaTOPFLASH and pMegaFOPFLASH (β-catenin reporter construct containing LEF1/TCF binding sites) or 5×-HRE (hypoxia response element) and 1 μg of pEF1/Myc-His/LacZ plasmid using Lipofectamine 2000 (Invitrogen, Carlsbad, Calif.). Six hours after transfection, the media was replaced with DMEM/F12 media. 24 hours after transfection, cells were either pre-treated with drugs for one hour or incubated in hypoxia 1% for 24 hours as mentioned in the figure legends. After 2 days, luciferase and galactosidase expression were measured using the Dual-Light Reporter Gene Assay (Applied Biosystems, Foster City, Calif.) according to the manufacturer's instructions. Luciferase activity was normalized to β-galactosidase activity as an internal transfection control.

AML12 hepatocytes [1] = assay: Intracellular ROS levels by DCF-DA flow cytometry; format: cell-based, mouse; conditions: one hour pre-treatment with NAC (2 mmol/L)
Procedure: as §1, with “hrs. The fluorescent probe, dichlorofluorescein diacetate (DCF-DA) (Invitrogen, Carlsbad, Calif.), was used to monitor the intracellular generation of ROS induced by hypoxia. After cells were incubated with 10 μmol/l DCF-DA for 30 min as previously described (67), cells were trypsinized, pelleted by centrifugation and resuspended in phosphate-buffered saline for FACS analysis by using a FACS LSRII flow cytometer (Becton Dickinson, San Diego, Calif.). The oxidized form of DCF-DA was excited at 488 nm and detected at 530 nm. Data were analyzed using CellQuest software.” for “hrs.”

AML12 hepatocytes [2] = assay: Apoptosis under hypoxia by MTT assay and immunoblot for caspase-cleaved K18Asp237; format: cell-based, mouse; conditions: YC-1 pre-treatment (100 μmol/L) for 1 hour
Procedure: Western Blot Analysis and Immunoprecipitation. Cells were treated with actinomycin D and TNFα, hydrogen peroxide (H2O2), hypoxia 1% for 24 hours or pre-treated with N-acetylcysteine (NAC), cobalt chloride (CoCl2), YC-1 (Alexis Biochemicals, San Diego, Calif.), Resveratrol or nicotinamide (NAM) as described in the figure legends. All other chemicals were purchased from Sigma Aldrich (Sigma Aldrich, St. Louis, Mo.). Total proteins (30 μg) were lysed with RIPA lysis buffer and separated by sodium dodecylsulfate-polyacrylamide gel electrophoresis. […]
For the assessment of cell proliferation and survival, a commercially available MTT (3-(4,5-dimethylthiazol-2-yl)-2,5-diphenyltetrazolium bromide) cell proliferation assay (Roche Applied Science, Indianapolis, Ind.) was used according to the manufacturer instructions. Absorbance was measured at 570 nm using a spectrophotometer.
Apoptosis was measured by western blot using Asp237 antibody that recognizes caspase-cleaved keratin18 or by using Caspase-Glo 3/7 Assay following the manusfacturer's instructions (Promega Corporation, Madison, Wis.). […] Caspase-Glo 3/7 reagent was added to each well in a 1:1 ratio and incubated for one hour before measuring luminescence using a LB96B dual injector luminometer (Berthold Technologies, Oak Ridge, Tenn.).

SMILES: [Cl][Co][Cl] [CoCl2, cobalt chloride]
HIF-1α induction (HRE reporter assay and immunoblot) (HIF-1; CoCl2 (150 μmol/L)): HIF-1α induction was verified
β-catenin/TCF reporter activity after HIF-1α stabilization (β-catenin/TCF signaling; AML12 hepatocytes, CoCl2 (150 μmol/L) under normoxia or hypoxia): significant reduction in TCF signal transduction; also recorded: reduced

SMILES: CC(=O)N[C@@H](CS)C(=O)O [NAC, N-acetylcysteine]
β-catenin/TCF signaling (reporter activity) under hypoxia (β-catenin/TCF signaling; AML12 hepatocytes, hypoxia, one hour pre-treatment with NAC (2 mmol/L)): diminish the suppressive effect of hypoxia derived ROS on β-catenin/TCF signal transduction; also recorded: prevents hypoxia-induced inhibition of β-catenin/TCF signaling
Intracellular ROS levels under hypoxia (AML12 hepatocytes [1]): decrease intracellular ROS; also recorded: significantly prevents ROS production under hypoxia

Hypoxia-induced suppression of TCF signaling (Sirt1 inhibition) (β-catenin/TCF signaling; hepatocytes under hypoxia, addition of Sirt1 inhibitor): abolished this effect
SMILES: NC(=O)c1cccnc1 [NAM, nicotinamide]

SMILES: OCc1ccc(-c2nn(Cc3ccccc3)c3ccccc23)o1 [YC-1, 3-(5′-hydroxymethyl-2′-furyl)-1-benzylindazole]
HIF-1 signal activity (HRE reporter) under hypoxia (HIF-1; hypoxia, pre-treatment with YC-1 (100 μmol/L) for 1 hour): significantly reduced HRE activity; also recorded: inhibits the hypoxia-induced increase in HIF-1 signal activity
Apoptosis under hypoxia (MTT assay, caspase-cleaved K18Asp237) (AML12 hepatocytes [2]): induced significant apoptosis; also recorded: more apoptosis

SMILES: Oc1ccc(C=Cc2cc(O)cc(O)c2)cc1 [resveratrol]
β-catenin/TCF signal transduction (Sirt1 agonist) (β-catenin/TCF signaling; hepatocytes, Sirt1 agonist): significantly inhibited β-catenin/TCF signal transduction
